The results in this text go back to patent EP0115821A1, “Fluoran compounds” (HODOGAYA CHEMICAL CO., LTD., priority 1983, dated 1984).

The series can be described thus: Solubility in organic solvents. It is filed as physicochemical. The note with it: at 50°C; for solubility (% by weight) in organic solvents: Hyzole-296: Hyzole-296 (diallylethane compound); for solubility (% by weight) in organic solvents: KMC-113: KMC-113 (alkyl naphthalene compound). An excerpt: The solubility of the fluoran compounds (B), (C) and (D) of the present invention in organic solvents was compared with that of the above-mentioned conventional fluoran compounds(A-1), (A-2) and (A-3), and the results are shown in Table 1.
Note: KMC-113 is an alkyl naphthalene compound manufactured by Kureha Chemical Industry Co. Ltd., and Hyzole-296 is a diallylethane compound manufactured by Nippon Petrochemical Co. Ltd. Both are organic solvents commonly used for pressure sensitive record sheets.

On to `CCN(CC)c1ccc2c(c1)Oc1ccc(NCc3ccccc3)cc1C21OC(=O)c2ccccc21` (stereo not drawn) [Compound (A-1), 2-benzylamino-6-diethylamino fluoran], for which the “solubility (% by weight) in organic solvents: Hyzole-296” value (“solubility (% by weight) … Hyzole-296” below) stood at 1.40% by weight and the “solubility (% by weight) in organic solvents: KMC-113” value (shortened to “solubility (% by weight) … KMC-113”) is reported as 0.44% by weight.

Regarding `CCCCN(CCCC)c1ccc2c(c1)Oc1ccc(NCc3cccc(Cl)c3)cc1C21OC(=O)c2ccccc21` (stereo not drawn) [Compound (C), 2-(3-chlorobenzylamino)-6-di-n-butylamino-fluoran], the “solubility (% by weight) … Hyzole-296” value is given as 6.30% by weight and the “solubility (% by weight) … KMC-113” value was found to be 4.20% by weight.

On to `CCCCN(CCCC)c1ccc2c(c1)Oc1ccc(NCc3ccccc3Cl)cc1C21OC(=O)c2ccccc21` (stereo not drawn) [Compound (B), 2-(2-chlorobenzylamino)-6-di-n-butylamino-fluoran], for which the “solubility (% by weight) … Hyzole-296” value is listed as 4.80% by weight and the “solubility (% by weight) … KMC-113” value turned out to be 3.30% by weight.

As to `CCCCN(CCCC)c1ccc2c(c1)Oc1ccc(NCc3ccc(Cl)cc3)cc1C21OC(=O)c2ccccc21` (stereo not drawn) [Compound (D), 2-(4-chlorobenzylamino)-6-di-n-butylamino-fluoran], the “solubility (% by weight) … Hyzole-296” value is on record as 7.20% by weight and the “solubility (% by weight) … KMC-113” value is on record as 3.80% by weight.

Take `CCN(CC)c1ccc2c(c1)Oc1ccc(NCc3ccccc3Cl)cc1C21OC(=O)c2ccccc21` (stereo not drawn) [Compound (A-2), 2-(2-chlorobenzylamino)-6-diethylamino fluoran]: the “solubility (% by weight) … Hyzole-296” value worked out at 1.80% by weight and the “solubility (% by weight) … KMC-113” value is on record as 1.20% by weight.

For `CCN(CC)c1ccc2c(c1)Oc1ccc(NCc3ccc(Cl)cc3)cc1C21OC(=O)c2ccccc21` (stereo not drawn) [(A-3), 2-(4-chlorobenzylamino)-6-diethylamino fluoran], the “solubility (% by weight) … Hyzole-296” value came out at 3.10% by weight and the “solubility (% by weight) … KMC-113” value is on record as 1.90% by weight.
